Test results: PubChem BioAssay (NCI)
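Values below derive from 48-hour exposures of cells grown in 96-well plates, with endpoints linearly interpolated between the two concentrations bracketing the appropriate inhibition level. Abbreviation: GI50, concentration required for 50% inhibition of growth. TGI: concentration producing complete growth inhibition.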

Assays:
Test in all cases: DTP human tumour cell line panel, 48 h
[1] = system: MDA-MB-435
[2] = system: SK-MEL-2 melanoma
[3] = system: HCT-116 colon
[4] = system: NCI-H522 lung
[5] = system: SW-620 colon
[6] = system: SK-MEL-28 melanoma
[7] = system: CAKI-1 renal
[8] = system: MOLT-4 leukemia

| SMILES | GI50 [1] [µM] | TGI [1] [µM] | GI50 [2] [µM] | TGI [2] [µM] | GI50 [3] [µM] | TGI [3] [µM] | GI50 [4] [µM] | TGI [4] [µM] | GI50 [5] [µM] | TGI [5] [µM] | GI50 [6] [µM] | TGI [6] [µM] | GI50 [7] [µM] | TGI [7] [µM] | GI50 [8] [µM] | TGI [8] [µM] |
| --- | --- | --- | --- | --- | --- | --- | --- | --- | --- | --- | --- | --- | --- | --- | --- | --- |
| O=C1C(=O)c2c(nc3ccc(Br)cn23)-c2ccccc21 | 0.185 | 0.334 | 0.596 | 1.99 | 0.314 | 1.2 | 0.588 | 2.22 | 0.622 | 1.76 | 0.606 | 1.56 | 1.52 | 3.01 | 0.447 | 2.22 |
| O=CNc1ncn[nH]1 |  | > 100 |  | > 100 |  | > 100 |  | > 100 |  | > 100 |  | > 100 |  | > 100 |  | > 100 |
| O=C1c2nsnc2C(=O)c2c(F)c(F)c(F)c(F)c21 | 0.846 | 2.14 | 2.17 | 4.81 | 0.426 | 1.36 |  |  | 0.172 | 0.348 | 0.594 | 1.76 |  |  | 0.298 | 1.44 |
| O=[N+]([O-])c1ccc(Sc2ncnc3nc[nH]c23)c2nonc12 | 3.04 | 17.1 | 4.36 | 15.9 | 2.59 | 12.9 | 1.39 | 2.71 | 1.63 | 3.44 | 5.79 | 18.5 | 5.97 | 33.7 | 2.07 | 15.7 |
| NC(N)=N/N=C/c1c(-c2cc(Cl)sc2Cl)nc2sccn12 | 4.03 | 15.1 | 2.72 | > 50 |  |  | 1.76 | > 50 | 1 | 2.43 |  |  | 7.65 | 16.3 | 0.912 | 1.91 |
| C/C(=C\CCc1ccoc1)CC/C=C(\C)CCCN1CCOCC1 | 3.48 | 13.7 | 12.2 | 25.9 | 2.27 | 10.2 | 10.9 | 26.8 | 3.43 | 14.6 | 10.3 | 24 | 3.65 | 14.9 | 4.2 | 16.9 |
| O=C(CN(/C=C/C(=O)C(F)(F)F)c1ccc(Cl)cc1)c1ccccc1 | 10.8 | 39 | 15.5 | 35.6 | 11.6 | 23.7 | 6.52 | 26.3 | 14.6 | 62.1 | 17.3 | 37.5 | 0.933 | 22.8 | 39.7 | > 100 |
| CCN(CC)CCOc1ccccc1/C=C/c1noc2ccccc12 |  |  |  | 16.7 |  | 19.2 |  | 22.2 |  | 23 |  | 21.1 |  | 26.2 |  | 76.7 |
| Cc1ccc2ncnc(N(CC(C)C)CC(C)C)c2c1 | 18.5 | 34.7 | 61.1 | > 100 |  | 27.7 | 18.9 | > 100 |  |  | 19.9 | 42.6 | 12.8 | 26.6 | 7.6 | 38.4 |
